Experimental data reported in publication PMC7587356, “High-Throughput Screening for Inhibitors of the SARS-CoV-2 Protease Using a FRET-Biosensor” (Molecules, 2020).
Structures can show the parent of a compound that is named as a salt. Where two headings read alike, the source gives them in different places.

Target: SARS-CoV-2 3CLpro (Severe acute respiratory syndrome coronavirus 2, UniProt P0DTD1)
Experiment: biochemical
Format: biochemical
Design: Replicate_1 / Replicate_2 / mean / mean (LOPAC_screen_w_protease): unit not given here
Details: for inhibition at 5 µM: 4 h
[1] = sheet LOPAC_screen_w_protease, LOPAC1280 primary screen with protease, 5 µM compound, mean of the two replicates
[2] = sheet LOPAC_screen_w_protease, LOPAC1280 primary screen with protease, 5 µM compound, replicate 1
[3] = sheet LOPAC_screen_w_protease, LOPAC1280 primary screen with protease, 5 µM compound, replicate 2
[4] = sheet LOPAC_screen_w_protease, primary screen of LOPAC1280 at 5 µM with protease, mean of the two replicates
[5] = sheet LOPAC_screen_w_protease, primary screen of LOPAC1280 at 5 µM with protease, replicate 1
[6] = sheet LOPAC_screen_w_protease, primary screen of LOPAC1280 at 5 µM with protease, replicate 2
[7] = sheet LOPAC_screen_w_protease, LOPAC1280 at 5 µM, mean of two replicates, read-out: mean
[8] = sheet LOPAC_screen_w_protease, LOPAC1280 at 5 µM, replicate 1, read-out: Replicate_1
[9] = sheet LOPAC_screen_w_protease, LOPAC1280 at 5 µM, replicate 2, read-out: Replicate_2
[10] = sheet LOPAC_screen_w_protease, primary screen with protease, mean of two replicates
[11] = sheet LOPAC_screen_w_protease, primary screen with protease, replicate 1
[12] = sheet LOPAC_screen_w_protease, primary screen with protease, replicate 2
[13] = LOPAC1280 primary screen with protease, 5 µM compound, mean of the two replicates
[14] = LOPAC1280 primary screen with protease, 5 µM compound, replicate 1
[15] = LOPAC1280 primary screen with protease, 5 µM compound, replicate 2
[16] = LOPAC1280 primary screen with protease, 5 µM compound, replicate 1, read-out: Replicate_1 (LOPAC_screen_w_protease)
[17] = LOPAC1280 primary screen with protease, 5 µM compound, replicate 2, read-out: Replicate_2 (LOPAC_screen_w_protease)

Q: For `Cc1[nH]c2ccc(O)cc2c1CCN.O=C(O)/C=C\C(=O)O` [2-Methyl-5-hydroxytryptamine maleate], which mean [1] is on record?
A: 5.124

Q: What about the Replicate_1 [2] of the same compound?
A: 4.629

Q: What about the Replicate_2 [3] of the same compound?
A: 5.62

Q: `Nc1nc(Nc2ccccc2)nc2c1ncn2[C@@H]1O[C@H](CO)[C@@H](O)[C@H]1O` [2-Phenylaminoadenosine] was tested. Which mean (sheet LOPAC_screen_w_protease, primary screen with protease, 5 µM, mean of two replicates) did it give?
A: -0.1756

Q: What about the Replicate_1 (sheet LOPAC_screen_w_protease, primary screen with protease, 5 µM, replicate 1) of the same compound?
A: -0.3497

Q: What about the Replicate_2 (sheet LOPAC_screen_w_protease, primary screen with protease, 5 µM, replicate 2) of the same compound?
A: -0.001377

Q: What does the source list for `N/C(=N\C(=O)c1nc(Cl)c(N)nc1N)NCc1ccc(Cl)c(Cl)c1` [3',4'-Dichlorobenzamil]?
A: mean [4]: 4.038; Replicate_1 [5]: 5.158; Replicate_2 [6]: 2.918

Q: What does the source list for `Cc1cn(C2CC(N=[N+]=[N-])C(CO)O2)c(=O)[nH]c1=O` (stereo not drawn) [3'-Azido-3'-deoxythymidine]?
A: inhibition at 5 µM [7]: 1.04%; inhibition at 5 µM [8]: 1.75%; inhibition at 5 µM [9]: 0.327%

Q: Which results are given for `O=C(O)Cc1ccc(O)c(O)c1` [3,4-Dihydroxyphenylacetic acid]?
A: inhibition at 5 µM (read-out: Replicate_1 (LOPAC screen with protease)): 41.7%; inhibition at 5 µM (read-out: Replicate_2 (LOPAC screen with protease)): 44.4%; inhibition at 5 µM (read-out: mean (LOPAC screen with protease)): 43.1%

Q: Which mean [10] does the source give for `O=[N+]([O-])c1cc(O)c(O)c([N+](=O)[O-])c1` [3,5-Dinitrocatechol] here?
A: 2.373

Q: And the Replicate_1 [11]?
A: 3.489

Q: And the Replicate_2 [12]?
A: 1.257

Q: What does the source list for `C#CCn1c(=O)c2c(ncn2C)n(C)c1=O` [3,7-Dimethyl-I-propargylxanthine]?
A: mean [10]: 2.439; Replicate_1 [11]: 3.614; Replicate_2 [12]: 1.263

Q: Which mean [1] does the source give for `NCCCS(=O)(=O)O.[Na]` [3-Amino-1-propanesulfonic acid sodium] here?
A: 5.742

Q: What about the Replicate_1 [2] of the same compound?
A: 6.514

Q: And the Replicate_2 [3]?
A: 4.97

Q: `N#CCCN.N#CCCN.O=C(O)/C=C/C(=O)O` [3-Aminopropionitrile fumarate] was tested. Which mean (sheet LOPAC_screen_w_protease, LOPAC1280 at 5 µM, mean of two replicates) did it give?
A: 0.9446

Q: And the Replicate_1 (sheet LOPAC_screen_w_protease, LOPAC1280 at 5 µM, replicate 1)?
A: 1.551

Q: What about the Replicate_2 (sheet LOPAC_screen_w_protease, LOPAC1280 at 5 µM, replicate 2) of the same compound?
A: 0.3384

Q: Which “mean (LOPAC_screen_w_protease)” value [13] does the source give for `NCCCP(=O)(O)O` [3-Aminopropylphosphonic acid] here?
A: 1.904

Q: And the “Replicate_1 (LOPAC_screen_w_protease)” value [14]?
A: 3.261

Q: What about the “Replicate_2 (LOPAC_screen_w_protease)” value [15] of the same compound?
A: 0.5459

Q: For `O=[N+]([O-])c1cccc2c(Br)n[nH]c12` [3-Bromo-7-nitroindazole], which “mean (LOPAC_screen_w_protease)” value [13] is on record?
A: 1.829

Q: And the “Replicate_1 (LOPAC_screen_w_protease)” value [14]?
A: 2.045

Q: What about the “Replicate_2 (LOPAC_screen_w_protease)” value [15] of the same compound?
A: 1.613

Q: Which inhibition at 5 µM [16] does the source give for `NNCc1cccc(O)c1` [3-Hydroxybenzylhydrazine dihydrochloride] here?
A: 3.31%

Q: What about the inhibition at 5 µM [17] of the same compound?
A: 0.839%

Q: And the “mean (LOPAC_screen_w_protease)” value [13]?
A: 2.074

Q: With `N[C@@H](Cc1ccc(O)c(I)c1)C(=O)O` [3-Iodo-L-tyrosine] as the compound, how does the “mean (LOPAC_screen_w_protease)” value [13] read?
A: 1.849

Q: What about the “Replicate_1 (LOPAC_screen_w_protease)” value [14] of the same compound?
A: 1.662

Q: What about the “Replicate_2 (LOPAC_screen_w_protease)” value [15] of the same compound?
A: 2.037

Q: What does the source list for `CC(C)Cn1c(=O)n(C)c(=O)c2[nH]cnc21` [3-Isobutyl-1-methylxanthine]?
A: mean (LOPAC_screen_w_protease) [13]: 2.03; Replicate_1 (LOPAC_screen_w_protease) [14]: -0.07674; Replicate_2 (LOPAC_screen_w_protease) [15]: 4.138

Q: `COc1ccc2c(c1)[C@@]13CCCC[C@H]1[C@@H](C2)NCC3.Cl` [3-Methoxy-morphanin hydrochloride] was tested. Which Replicate_1 did it give?
A: 3.105

Q: And the Replicate_2?
A: 3.489

Q: What about the mean of the same compound?
A: 3.297

Q: `Nc1c[n+](N2CCOCC2)no1.[Cl-]` [3-Morpholinosydnonimine hydrochloride] was tested. Which “mean (LOPAC screen with protease)” value (sheet LOPAC_screen_w_protease, primary screen at 5 µM, mean of two replicates) did it give?
A: 21.789

Q: And the “Replicate_1 (LOPAC screen with protease)” value (sheet LOPAC_screen_w_protease, primary screen at 5 µM, replicate 1)?
A: 21.9907

Q: And the “Replicate_2 (LOPAC screen with protease)” value (sheet LOPAC_screen_w_protease, primary screen at 5 µM, replicate 2)?
A: 21.5874

Q: For `O=C(O)CC[N+](=O)[O-]` [3-Nitropropionic acid], which inhibition at 5 µM (sheet LOPAC_screen_w_protease, primary screen of LOPAC1280 at 5 µM with protease, mean of the two replicates, read-out: mean) is on record?
A: 3.54%

Q: What about the inhibition at 5 µM (sheet LOPAC_screen_w_protease, primary screen of LOPAC1280 at 5 µM with protease, replicate 1, read-out: Replicate_1) of the same compound?
A: 2.8%

Q: What about the inhibition at 5 µM (sheet LOPAC_screen_w_protease, primary screen of LOPAC1280 at 5 µM with protease, replicate 2, read-out: Replicate_2) of the same compound?
A: 4.28%

Q: `Cl.NCC#Cc1ccccc1` [3-Phenylpropargylamine hydrochloride] was tested. Which mean (sheet LOPAC_screen_w_protease, LOPAC1280 primary screen at 5 µM, with protease, mean of the two replicates) did it give?
A: 0.744

Q: And the Replicate_1 (sheet LOPAC_screen_w_protease, LOPAC1280 primary screen at 5 µM, with protease, replicate 1)?
A: 1.313

Q: What about the Replicate_2 (sheet LOPAC_screen_w_protease, LOPAC1280 primary screen at 5 µM, with protease, replicate 2) of the same compound?
A: 0.1753

Q: What does the source list for `CN1[C@@H]2CC[C@H]1C[C@@H](OC(=O)c1cc(Cl)cc(Cl)c1)C2` [3-Tropanyl-3,5-dichlorobenzoate]?
A: inhibition at 5 µM [16]: 2.08%; inhibition at 5 µM [17]: 0.785%; mean (LOPAC_screen_w_protease) (LOPAC1280 primary screen with protease, 5 µM compound, mean of two replicates): 1.4299

Q: For `NC(=O)c1cccc(N)c1` [3-aminobenzamide], which inhibition at 5 µM [7] is on record?
A: 1.28%

Q: What about the inhibition at 5 µM [8] of the same compound?
A: 1.05%

Q: And the inhibition at 5 µM [9]?
A: 1.51%

Q: For `Nc1nccc2c1ncn2[C@@H]1O[C@H](CO)[C@@H](O)[C@H]1O` [3-deazaadenosine], which mean [4] is on record?
A: 3.161

Q: And the Replicate_1 [5]?
A: 4.639

Q: What about the Replicate_2 [6] of the same compound?
A: 1.683
